Laboratory results reported in ChEMBL document CHEMBL1138701, “Anti-AIDS agents. Part 62: anti-HIV activity of 2'-substituted 4-methyl-3',4'-di-O-(-)-camphanoyl-(+)-cis-khellactone (4-methyl DCK) analogs” (Bioorg Med Chem Lett, 2004).

Legend:
[1] = Therapeutic index expressed as ratio of IC50 for 50% growth inhibition to EC50 for 50% replication inhibition; format: cell-based; conditions: human, H9 cells; read-out: TI
[2] = system: H9; assay: Concentration required to inhibit 50% growth of uninfected H9 cells; format: functional, cell-based; conditions: Homo sapiens
[3] = system: Human immunodeficiency virus; assay: Concentration required to inhibit 50% of HIV (human immunodeficiency virus) replication; format: functional, organism-based; conditions: Human immunodeficiency virus 1

SMILES | EC50 [3] [µM] | selectivity ratio [1] | IC50 [2] [µM]
CCCC1(C)Oc2ccc3c(C)cc(=O)oc3c2[C@@H](OC(=O)C23CCC(C)(C(=O)O2)C3(C)C)[C@H]1OC(=O)C12CCC(C)(C(=O)O1)C2(C)C (stereo partly specified) | 6.4 | > 5.9 | > 37.6
Cc1cc(=O)oc2c3c(ccc12)OC[C@H](OC(=O)C12CCC(C)(C(=O)O1)C2(C)C)[C@@H]3OC(=O)C12CCC(C)(C(=O)O1)C2(C)C (stereo partly specified) | 6.9 | > 6 | > 41.1
CCC1(CC)Oc2ccc3c(C)cc(=O)oc3c2[C@@H](OC(=O)C23CCC(C)(C(=O)O2)C3(C)C)[C@H]1OC(=O)C12CCC(C)(C(=O)O1)C2(C)C (stereo partly specified) | 2.84 | > 13.2 | > 37.6
Cc1cn([C@H]2C[C@H](N=[N+]=[N-])[C@@H](CO)O2)c(=O)[nH]c1=O [ZIDOVUDINE] | 0.04 | 39000 | 1870

Continued, in another order:

EC50 [3] [µM] | SMILES | selectivity ratio [1] | IC50 [2] [µM]
0.049 | CC1(C)Oc2ccc3ccc(=O)oc3c2[C@@H](OC(=O)C23CCC(C)(C(=O)O2)C3(C)C)[C@H]1OC(=O)C12CCC(C)(C(=O)O1)C2(C)C (stereo partly specified) | > 328 | > 16.1
0.22 | CCC1(C)Oc2ccc3c(C)cc(=O)oc3c2[C@@H](OC(=O)C23CCC(C)(C(=O)O2)C3(C)C)[C@H]1OC(=O)C12CCC(C)(C(=O)O1)C2(C)C (stereo partly specified) | > 175 | > 38.4
0.0059 | Cc1cc(=O)oc2c3c(ccc12)OC(C)(C)[C@H](OC(=O)C12CCC(C)(C(=O)O1)C2(C)C)[C@@H]3OC(=O)C12CCC(C)(C(=O)O1)C2(C)C (stereo partly specified) | > 6600 | > 38.9
